Entries after “also recorded” stand apart in the source; their conditions may differ.
Columns and labels:
[1] = target: T1, 14-3-3-ζ (Homo sapiens, UniProt P63104); assay: Fluorescence polarization titration of fluorescein-labeled integrin tails with 14-3-3-ζ; type: binding; conditions: 1 μM, ex 485 nm, em 520 nm; for binding to 14-3-3-ζ by fluorescence polarization, in words: fluorescein-labeled tail
T1 construct: His10 (cleaved yes); made in house
T1 sequence (P63104 1-245): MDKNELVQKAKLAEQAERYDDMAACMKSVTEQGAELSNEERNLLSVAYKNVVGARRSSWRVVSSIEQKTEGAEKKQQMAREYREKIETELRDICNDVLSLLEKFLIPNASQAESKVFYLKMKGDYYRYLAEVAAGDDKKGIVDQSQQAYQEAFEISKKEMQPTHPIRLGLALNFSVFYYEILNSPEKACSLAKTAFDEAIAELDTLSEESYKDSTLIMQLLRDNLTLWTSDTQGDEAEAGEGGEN
Protocol: Fig. 6 Fluorescence polarization and ITC of interactions between integrin tails and 14-3-3-ζ. (a) Fluorescence polarization titrations of fluorescein-labeled β1A, β3 and α4 with 14-3-3-ζ. […] (b–d) ITC sensorgram of an in-cell 200 μM β1A, β2 (same as in Fig. 5a) or β3 samples injected with 2 mM 14-3-3-ζ.
For fluorescence polarization experiments, integrin tails were labeled with fluorescein-5-maleimide (Invitrogen) linked to an engineered C-terminal Cys residue. Measurements were performed using 96-well microplates (Corning) in a PHERAstar FS microplate reader (BMG Labtech). Fluorescein-labeled integrin tails at 1 μM concentration were excited at 485 nm, and polarization was recorded at 520 nm.

[2] = target: T1, 14-3-3-ζ; assay: ITC of integrin tail fragments with 14-3-3-ζ; type: binding; conditions: 298 K, pH 6.5, fragment in cell, 14-3-3-ζ in syringe
Protocol: Phosphorylated α4 synthetic peptides were purchased from GL Biochem Ltd. (Shanghai). All recombinant proteins and synthetic peptides were prepared in 20 mM sodium phosphate and 50 mM NaCl (pH 6.5), and concentrations were determined by UV absorbance at 280 nm. ITC experiments using a VP-ITC200 instrument (MicroCal) were performed at 298 K as follows: the cell (volume, ~ 200 μl) contained the different integrin tail fragments, and the syringe (volume, ~ 40 μl) contained 14-3-3-ζ. A first injection of 2 μl was followed by 15 injections of 2.5 μl, with a stirring speed of 1500 rpm and a delay between injections of 180 s. A blank titration was performed by injecting 14-3-3-ζ into buffer to take the heat of dilution into account. Experiments were repeated twice for each sample. Raw data were processed and fitted with MicroCal Origin software using a one-site model where the error function is calculated as the sum of the squared deviations between the data and the model curve.

[3] = system: paxillin (residues 1–323); assay: ITC test of pairwise interaction with paxillin N-terminal region; type: binding
Protocol: (§1) The interactions of α4 and 14-3-3-ζ with paxillin were also investigated. The association of paxillin with α4 has been detected using pull-down experiments with glutathione S-transferase fusion proteins[22,32,33] and, very recently, by NMR in a study that also reports the solution structure of the α4 integrin tail.[34] […] The possibility that a paxillin/14-3-3-ζ association depends on phosphorylation was also assessed. The ELM (eukaryotic linear motif) server[35] indicated three putative 14-3-3 binding motifs in the paxillin N-terminus; of these, only one has been reported to be phosphorylated in vivo[36] (Supplementary Fig. 1a). […] The recent report of paxillin binding to α4 detected by NMR used shorter paxillin fragments than us, covering the LD2–LD4 region.[34] It is possible that, in the whole N-terminal paxillin, the α4 interaction sites are masked, which would explain the absence of an interaction in our studies.
Phosphorylated α4 synthetic peptides were purchased from GL Biochem Ltd. (Shanghai). All recombinant proteins and synthetic peptides were prepared in 20 mM sodium phosphate and 50 mM NaCl (pH 6.5), and concentrations were determined by UV absorbance at 280 nm. […] Raw data were processed and fitted with MicroCal Origin software using a one-site model where the error function is calculated as the sum of the squared deviations between the data and the model curve.

[4] = system: paxillin (residues 1–323); assay: NMR test of α4 integrin tail interaction with paxillin N-terminal region; type: binding; conditions: paxillin residues 1–323 with all LD motifs
Protocol: as §1
Samples were prepared in NMR buffer (pH 6.5) with 5% D2O, and experiments were performed at 25 °C. Titration experiments were collected on a 500-MHz spectrometer using a water flip-back-embedded gradient enhanced ^15N–^1H HSQC pulse sequence.[46] […] Data were processed using NMRPipe[47] and analyzed with the programs CARA/XEASY[48] or CCPN Analysis.[49]

[5] = target: T1, 14-3-3-ζ; assay: 15N-1H HSQC NMR titration of 15N-labeled integrin tails with unlabeled 14-3-3-ζ; type: binding; conditions: 15N-labeled tail 0.1 mM, equimolar unlabeled 14-3-3-ζ; NMR buffer pH 6.5, 25 °C
Protocol: (§2) Samples were prepared in NMR buffer (pH 6.5) with 5% D2O, and experiments were performed at 25 °C. Titration experiments were collected on a 500-MHz spectrometer using a water flip-back-embedded gradient enhanced ^15N–^1H HSQC pulse sequence.[46] For the assignment of the α4 and β2 backbone resonances, ^15N–^13C integrin tails of 0.6 mM concentration were used to measure CBCA(CO)NH and CBCANH experiments on a Bruker 500-MHz instrument equipped with a cryogenic probe head. Data were processed using NMRPipe[47] and analyzed with the programs CARA/XEASY[48] or CCPN Analysis.[49]

[6] = system: 14-3-3-ζ S58E; assay: NMR binding of 14-3-3-ζ variant S58E to labeled integrin tail; conditions: labeled β1A
Excerpt: (§3) To gain further insight into the β1A/14-3-3-ζ association, we investigated the effects of 14-3-3-ζ substitutions on binding to β1A integrin tail. It has been reported that the substitution S58A in 14-3-3-β abolishes the β1A interaction.[38] S58 regulates the dimeric state of 14-3-3,[39] but it is not involved directly in binding to phospho-peptides. The binding of 14-3-3-ζ variants S58A and S58E to labeled β1A was studied using NMR. […] A similar result was obtained with the β2 integrin tail (data not shown).
as §2

[7] = system: 14-3-3-ζ S58A; assay: NMR binding of 14-3-3-ζ variant S58A to labeled integrin tail; conditions: labeled β1A
Excerpt: as §3, §2

GPLGSKAGFFKRQYKSILQEENRRDSWSYINSKSNDD [α4 wt, recombinant α4 integrin cytoplasmic tail, residues 1001–1032]
binding to 14-3-3-ζ by fluorescence polarization, in words [1]: No binding was detected | binding to 14-3-3-ζ by ITC, in words [2]: a Kd could not be determined by ITC; also recorded: the interaction is weak, in the millimolar range | interaction with paxillin by ITC, in words [3]: no pairwise interaction was detected by ITC | interaction with paxillin by NMR, in words [4]: no specific interaction | change of integrin tail resonances on addition of 14-3-3-ζ, in words [5]: significant decrease in α4 amide resonance intensities

GS KLLMIIHDRREFAKFEKEKMNAKWDTGENPIYKSAVTTVVNPKYEGK (GSKLLMIIHDRREFAKFEKEKMNAKWDTGENPIYKSAVTTVVNPKYEGK; left off: His10, N-terminal, cleaved) [β1A wt, recombinant β1A integrin tail, residues 752–798]
binding to 14-3-3-ζ by fluorescence polarization, in words [1]: clearly binds | Kd ([1]; fluorescence polarization, tail labeled with fluorescein-5-maleimide at engineered C-terminal Cys, single-site model): 95 ± 16 µM | change of integrin tail resonance intensity with 14-3-3-ζ S58E, in words [6]: the intensities change even less | change of integrin tail resonance intensity with 14-3-3-ζ S58A compared to wt, in words [7]: significant reduction in β1A resonance intensity change | change of integrin tail resonances on addition of 14-3-3-ζ, in words [5]: intensity reduction for several resonances
